Source: ChEMBL document CHEMBL3259655, “Anthranilic acid derivatives as novel ligands for farnesoid X receptor (FXR)” (Bioorg Med Chem, 2014)
≈ marks a conversion by molar mass, not a printed value. Calls of active or inactive are those of the source. The calls are words filed in the database; no cut-off is given here.

Experiments:
[1] = target: T1, Bile acid receptor (Homo sapiens) (UniProt Q96RI1); test: Agonist activity at human FXR expressed in human HeLa cells assessed as transactivation at 30 uM after 24 hrs by luciferase reporter gene assay relative to GW4064; assay type: cell-based
T1 sequence (whole entry): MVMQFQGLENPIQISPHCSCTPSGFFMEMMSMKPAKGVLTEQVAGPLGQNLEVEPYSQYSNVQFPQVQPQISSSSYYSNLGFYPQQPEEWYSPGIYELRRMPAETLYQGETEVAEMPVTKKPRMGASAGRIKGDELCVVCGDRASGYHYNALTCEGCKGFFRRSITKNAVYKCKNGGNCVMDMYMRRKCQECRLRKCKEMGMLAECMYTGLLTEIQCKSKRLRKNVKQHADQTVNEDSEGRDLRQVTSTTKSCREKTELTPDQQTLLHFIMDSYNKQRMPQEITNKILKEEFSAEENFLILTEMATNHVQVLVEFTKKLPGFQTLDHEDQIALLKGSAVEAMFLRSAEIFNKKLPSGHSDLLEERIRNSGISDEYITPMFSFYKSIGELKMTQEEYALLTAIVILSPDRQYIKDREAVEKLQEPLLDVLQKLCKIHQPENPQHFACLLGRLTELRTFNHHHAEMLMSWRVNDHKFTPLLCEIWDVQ

[2] = target: T1, Bile acid receptor (Homo sapiens); test: Agonist activity at human FXR expressed in human HeLa cells assessed as transactivation after 24 hrs by luciferase reporter gene assay relative to GW4064; assay type: cell-based
[3] = target: T2, Bile acid receptor (Homo sapiens, UniProt Q96RI1); test: Agonist activity at human FXR expressed in human HeLa cells assessed as transactivation after 24 hrs by luciferase reporter gene assay; assay type: cell-based
T2 sequence (Q96RI1 whole entry): T1 sequence (whole entry)

[4] = target: T1, Bile acid receptor (Homo sapiens); test: Agonist activity at human FXR expressed in human HeLa cells assessed as transactivation at 3 uM after 24 hrs by luciferase reporter gene assay relative to GW4064; assay type: cell-based
[5] = test system: HeLa; test: Cytotoxicity against human HeLa cells at >10 uM after 48 hrs by WST-1 assay; assay type: cell-based
[6] = test system: HepG2; test: Cytotoxicity against human HepG2 cells at 60 uM after 48 hrs by WST-1 assay relative to control; assay type: cell-based; details: hepg2, 48 h
[7] = test system: HepG2; test: Cytotoxicity against human HepG2 cells at 100 uM after 48 hrs by WST-1 assay relative to control; assay type: cell-based; details: hepg2, 48 h
[8] = test system: HepG2; test: Cytotoxicity against human HepG2 cells at 30 uM after 48 hrs by WST-1 assay relative to control; assay type: cell-based; details: hepg2, 48 h
[9] = target: T3, Prostaglandin G/H synthase 2 (Homo sapiens) (UniProt P35354); test: Inhibition of recombinant human COX2 using arachidonic acid as substrate up to 10 uM preincubated for 5 mins followed by substrate addition measured after 5 mins
T3 sequence (whole entry): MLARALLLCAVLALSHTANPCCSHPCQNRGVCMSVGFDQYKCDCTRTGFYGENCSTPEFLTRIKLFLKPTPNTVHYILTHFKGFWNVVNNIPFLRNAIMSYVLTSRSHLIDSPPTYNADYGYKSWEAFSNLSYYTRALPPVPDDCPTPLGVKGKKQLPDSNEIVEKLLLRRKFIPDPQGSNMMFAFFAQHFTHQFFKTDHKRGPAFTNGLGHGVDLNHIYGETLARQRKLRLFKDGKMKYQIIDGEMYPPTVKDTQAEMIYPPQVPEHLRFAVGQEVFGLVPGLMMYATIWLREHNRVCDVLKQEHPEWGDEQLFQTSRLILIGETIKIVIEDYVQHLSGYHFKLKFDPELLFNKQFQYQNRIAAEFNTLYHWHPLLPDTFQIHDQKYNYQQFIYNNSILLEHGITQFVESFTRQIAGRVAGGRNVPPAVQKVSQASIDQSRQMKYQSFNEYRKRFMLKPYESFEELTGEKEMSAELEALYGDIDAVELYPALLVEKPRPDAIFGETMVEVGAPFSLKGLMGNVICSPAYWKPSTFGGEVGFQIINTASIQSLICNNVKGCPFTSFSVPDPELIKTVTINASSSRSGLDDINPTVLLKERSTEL

[10] = Metabolic stability in Sprague-Dawley rat liver microsomes assessed as compound remaining at 10 uM after 15 mins by HPLC analysis; assay type: ADME; details: read-out: Stability
[11] = Aqueous solubility of the compound; assay type: physicochemical; details: water
[12] = Metabolic stability in Sprague-Dawley rat liver microsomes assessed as compound remaining at 10 uM after 30 mins by HPLC analysis; assay type: ADME; details: read-out: Stability
[13] = test system: HepG2; test: Cytotoxicity against human HepG2 cells at 10 uM after 48 hrs by WST-1 assay relative to control; assay type: cell-based; details: hepg2, 48 h
[14] = test system: HeLa; test: Cytotoxicity against human HeLa cells at 60 uM after 48 hrs by WST-1 assay; assay type: cell-based
[15] = target: T4, Prostaglandin G/H synthase 1 (Ovis aries) (UniProt P05979); test: Inhibition of ovine COX1 using arachidonic acid as substrate up to 10 uM preincubated for 5 mins followed by substrate addition measured after 5 mins
T4 sequence (whole entry): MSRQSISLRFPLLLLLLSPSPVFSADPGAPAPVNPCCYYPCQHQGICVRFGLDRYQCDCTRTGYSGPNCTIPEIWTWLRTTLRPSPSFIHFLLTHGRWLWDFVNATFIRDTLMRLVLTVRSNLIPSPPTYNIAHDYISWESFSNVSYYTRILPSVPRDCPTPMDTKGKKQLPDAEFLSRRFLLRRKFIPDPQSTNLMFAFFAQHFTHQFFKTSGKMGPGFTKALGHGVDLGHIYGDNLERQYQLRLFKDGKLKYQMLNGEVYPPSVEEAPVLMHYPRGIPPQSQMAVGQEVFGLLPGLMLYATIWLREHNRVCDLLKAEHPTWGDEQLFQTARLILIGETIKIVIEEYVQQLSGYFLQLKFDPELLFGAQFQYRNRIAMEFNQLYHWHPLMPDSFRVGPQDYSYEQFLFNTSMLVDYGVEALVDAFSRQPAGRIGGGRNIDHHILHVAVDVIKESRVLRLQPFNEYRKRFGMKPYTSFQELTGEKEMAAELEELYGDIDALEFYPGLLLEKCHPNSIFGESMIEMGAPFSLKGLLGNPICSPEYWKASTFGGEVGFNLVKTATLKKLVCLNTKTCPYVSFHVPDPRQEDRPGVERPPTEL

[16] = Metabolic stability in Sprague-Dawley rat liver microsomes assessed as compound remaining at 10 uM after 60 mins by HPLC analysis; assay type: ADME; details: read-out: Stability
[17] = target: T5, Prostaglandin E synthase (Homo sapiens) (UniProt O14684); test: Inhibition of mPGES1 mediated PGE2 production in IL-1beta stimulated human A549 cells at 10 uM by RP-HPLC analysis; assay type: cell-based
T5 sequence (whole entry): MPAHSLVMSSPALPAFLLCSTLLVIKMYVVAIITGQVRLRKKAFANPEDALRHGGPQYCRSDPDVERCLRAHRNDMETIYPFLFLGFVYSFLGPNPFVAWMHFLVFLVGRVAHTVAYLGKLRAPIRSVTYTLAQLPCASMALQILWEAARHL

[18] = target: T6, Polyunsaturated fatty acid 5-lipoxygenase (Homo sapiens) (UniProt P09917); test: Inhibition of 5-LO in human polymorphonuclear leukocytes using arachidonic acid as substrate at 10 uM preincubated for 15 mins followed by substrate addition measured after 10 mins by HPLC analysis in presence of Ca2+-ionophore A23187; assay type: cell-based
T6 sequence (whole entry): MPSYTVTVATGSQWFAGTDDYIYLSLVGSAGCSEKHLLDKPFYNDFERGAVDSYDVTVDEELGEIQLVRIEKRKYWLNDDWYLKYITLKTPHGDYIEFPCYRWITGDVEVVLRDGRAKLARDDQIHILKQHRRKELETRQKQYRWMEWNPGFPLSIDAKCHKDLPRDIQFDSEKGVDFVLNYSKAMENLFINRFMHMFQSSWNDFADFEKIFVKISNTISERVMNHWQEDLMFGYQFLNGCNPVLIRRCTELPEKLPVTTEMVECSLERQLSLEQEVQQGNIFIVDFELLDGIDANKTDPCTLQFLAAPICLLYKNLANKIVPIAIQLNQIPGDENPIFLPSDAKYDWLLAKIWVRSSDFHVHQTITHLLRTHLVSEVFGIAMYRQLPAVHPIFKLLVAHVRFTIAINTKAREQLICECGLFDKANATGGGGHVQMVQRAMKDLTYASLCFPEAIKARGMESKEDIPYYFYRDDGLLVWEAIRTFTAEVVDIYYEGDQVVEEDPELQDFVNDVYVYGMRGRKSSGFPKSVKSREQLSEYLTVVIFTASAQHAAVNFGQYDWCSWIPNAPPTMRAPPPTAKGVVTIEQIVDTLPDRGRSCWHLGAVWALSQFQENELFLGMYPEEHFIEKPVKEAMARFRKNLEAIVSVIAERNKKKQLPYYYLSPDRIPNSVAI

Row | SMILES | max activation [1] | max activation [2] [%] | EC50 [3] [µM] | other results
1 | O=C(O)CCCNC(=O)c1ccccc1NC(=O)c1cccc(-c2ccccc2)c1 | inactive | – | – | –
2 | O=C(O)CCCNC(=O)c1ccccc1NC(=O)c1cc([N+](=O)[O-])cc([N+](=O)[O-])c1 | inactive | – | – | –
3 | O=C(O)CCCNC(=O)c1ccccc1NC(=O)CC(c1ccccc1)c1ccccc1 | inactive | – | – | –
4 | COC(=O)CCCNC(=O)c1ccccc1NC(=O)c1ccc2ccccc2c1 | – | 19 | 7.1 | –
5 | O=C(O)c1ccc(NC(=O)c2ccccc2NC(=O)c2ccc3ccccc3c2)cc1 | – | 23 | 1 | –
6 | O=C(O)CCCNC(=O)c1ccccc1NC(=O)Cc1ccc2ccccc2c1 | inactive | – | – | –
7 | O=C(O)Cc1ccc(NC(=O)c2ccccc2NC(=O)c2ccc3ccccc3c2)cc1 | – | 9.8 | 3.1 | –
8 | CC(C)(C)c1ccc(C(=O)Nc2ccccc2C(=O)NCCCC(=O)O)cc1 | – | 19 | 2.5 | –
9 | O=C(O)CCCCNC(=O)c1ccccc1NC(=O)c1ccc2ccccc2c1 | – | 11.4 | 8.3 | –
10 | CCc1ccc(C(=O)Nc2ccccc2C(=O)NCCCC(=O)O)cc1 | – | 28 | 5.8 | –
11 | O=C(O)CCCNC(=O)c1ccccc1NC(=O)CCc1ccccc1 | inactive | – | – | –
12 | COc1ccc(C(=O)Nc2ccccc2C(=O)NCCCC(=O)O)cc1 | – | – | – | max activation [4]: inactive; Activity [5]: Toxic
13 | Cc1ccc(C(=O)Nc2ccccc2C(=O)NCCCC(=O)O)cc1 | 11% | – | – | –
14 | O=C(O)CCCNC(=O)c1ccccc1NC(=O)c1ccncc1 | inactive | – | – | –
15 | O=C(O)CCCNC(=O)c1ccccc1NC(=O)c1cccs1 | – | – | – | max activation [4]: inactive; Activity [5]: Toxic
16 | O=C(O)CCCNCc1ccccc1NC(=O)c1ccc2ccccc2c1 | inactive | – | – | –
17 | O=C(O)CCCCCNC(=O)c1ccccc1NC(=O)c1ccc2ccccc2c1 | – | 10.4 | 4.4 | –
18 | O=C(O)CCCNC(=O)c1ccccc1NCc1ccc2ccccc2c1 | inactive | – | – | –
19 | O=C(O)c1ccc(CNC(=O)c2ccccc2NC(=O)c2ccc3ccccc3c2)cc1 | – | 10 | 1.3 | –
20 | CN(CCCC(=O)O)C(=O)c1ccccc1NC(=O)c1ccc2ccccc2c1 | inactive | – | – | –
21 | O=C(O)CCCNC(=O)c1ccccc1NS(=O)(=O)c1ccc2ccccc2c1 | inactive | – | – | –
22 | O=C(O)CCCNC(=O)c1ccccc1NC(=O)c1ccc2ccccc2c1 | – | 37 | 8.55 | Activity [6]: 81%; Activity [7]: 84%; Activity [8]: 90%; inhibition [9]: inactive; remaining at 0.25 h, 10 µM [10]: 93%; solubility [11]: 45 µg/mL (≈ 120 µM); remaining at 0.5 h, 10 µM [12]: 93%; Activity [13]: 92%; Activity [14]: Non-toxic; inhibition [15]: inactive; remaining at 1 h, 10 µM [16]: 92%; inhibition [17]: inactive; inhibition [18]: inactive
23 | O=C(O)CCCNC(=O)c1ccccc1NC(=O)/C=C/c1ccccc1 | – | 12.4 | 0.72 | –
24 | O=C(O)CCCNC(=O)c1ccccc1NC(=O)c1ccccc1-c1ccccc1 | inactive | – | – | –
25 | O=C(O)CCCNC(=O)c1ccccc1NC(=O)c1cccc2ccccc12 | inactive | – | – | –
26 | CN(C(=O)c1ccc2ccccc2c1)c1ccccc1C(=O)NCCCC(=O)O | inactive | – | – | –
27 | O=C(O)c1cccc(NC(=O)c2ccccc2NC(=O)c2ccc3ccccc3c2)c1 | – | 37 | 1.5 | Activity [6]: 50%; Activity [7]: 46%; Activity [8]: 65%; remaining at 0.25 h, 10 µM [10]: 86%; solubility [11]: 0.3 µg/mL (≈ 0.731 µM); remaining at 0.5 h, 10 µM [12]: 76%; Activity [13]: 93%; Activity [14]: Non-toxic; remaining at 1 h, 10 µM [16]: 61%
28 | O=C(O)CCCNC(=O)c1ccccc1NC(=O)C(c1ccccc1)c1ccccc1 | – | – | – | max activation [4]: inactive; Activity [5]: Toxic
29 | O=C(O)CCCNC(=O)c1ccccc1NC(=O)c1ccc(-c2ccccc2)cc1 | – | – | – | max activation [4]: inactive; Activity [5]: Toxic
